Results reported in article PMC10028264, “Synergistic antifungal interaction of N-(butylcarbamothioyl) benzamide and amphotericin B against Cryptococcus neoformans” (Frontiers in Microbiology, 2023).
pIC50: −log10 of the molar value. Values after ≈ are worked out from the molar mass of the structure shown.

Columns and labels:
Hemolysis assay = type: cell-based, human; settings: human, human erythrocyte suspension (3%); range over tested concentrations; compound alone; 3 h at 37°C; read-out: percentage of hemolysis
Protocol: The cytotoxicity of BTU-01 (1.95–1000.0 μg/mL) alone and combined with AmB (0.015–16.0 μg/mL) was evaluated on human erythrocytes. Blood from a healthy donor was collected according to the Declaration of Helsinki principles, defibrinated and an erythrocytes suspension (3%) was prepared in 5% glycosylated saline. A total of 100 μL of the erythrocytes suspension was incubated for 3 h at 37°C in wells of U-bottom 96-well polystyrene plates containing different concentrations of the compounds. Wells without the compounds and with 1% Triton X-100 were used as negative and positive hemolysis controls, respectively. The OD of the supernatant was determined at 550 nm with a microtiter plate reader (Synergy HT, BioTek, USA). The percentage of hemolysis was calculated by comparison with the positive control ([Izumi et al., 2012]).
(§1) The concentration of BTU-01 capable of causing 90% of hemolysis/cytotoxicity was used to calculate the selectivity index (SI) using the following equation: SI = CC90/MIC.

Cryptococcus neoformans = experiment: Time-kill kinetics; type: cell-based; settings: for difference in CFU counts compared to untreated control cells: BTU-01 MIC, 48 h
Protocol: For all assays, fungal cells were incubated in RPMI-MOPS (except when specified) supplemented with BTU-01 and AmB alone at MIC and MFC values or combined at the synergistic MIC values. Untreated fungal cells were considered as control. The time-kill assay ([CLSI, 1999]) was performed to analyze the rate of fungal killing in the presence of the compounds alone or combined. The fungal cells (1.0 × 10^3 CFU/mL) were added to the wells of U-bottom 96-wells microtiter plates containing RPMI-MOPS supplemented with BTU-01 and/or AmB and were incubated at 37°C. At determined time points (0, 24, and 48 h), 10 μL was removed from each well and 10-fold serial diluted in saline. A 10-μL aliquot of each dilution was inoculated onto SD agar and the CFU counts were carried out after incubation at 37°C for 48 h. Averaged data were plotted as log10 CFU/mL vs. time (h). The fungicidal effect of the compounds was defined as a 99.9% (3 log10) reduction in CFU/mL of the starting inoculum ([[…] et al., 1998]).

[1] = Cytotoxicity, MTT reduction assay, ranges over all cell lines; type: cell-based; settings: different cell lines
Protocol: The effect of BTU-01 was analyzed on mammalian epithelial cell lines [HEp-2 CCL-23™ (ATCC), LLC-MK2, VERO CCL81 and HeLa (Merck, Brazil)], and the cytotoxicity was evaluated as described by [Longhi et al. (2016)] with modifications. Briefly, cells were cultured in Dulbecco’s Modified Eagle’s medium (DMEM) supplemented with 10% fetal bovine serum (Invitrogen, Brazil), 2 mM L-glutamine, 100 IU/mL penicillin, 100 μg/mL streptomycin, 1% tylosin in flat-bottomed 96-well microtiter plates, in 5% CO2 at 37°C for 48 h. Then, the medium was carefully removed and fresh medium containing twofold serially diluted BTU-01 (0.095–500.0 μg/mL) was added. The cells were incubated for further 24 h under the same conditions. Cell viability was analyzed by the MTT reduction assay according to the manufacturer’s recommendation. The concentration of the compound needed to inhibit the viable cells up to 50 and 90% by regression analysis corresponds to the 50% (CC50) and 90% (CC90) cytotoxic concentrations, respectively.
as §1

cryptococcal urease = biological target: T1, cryptococcal urease (Cryptococcus neoformans, UniProt O13465); experiment: Urease activity inhibition test (indophenol method, crude protein extract); type: biochemical
T1 construct: 100 μL of crude protein extract; endogenous in cells; host or cells: Cryptococcus neoformans ATCC 34872, crude lysate (glass-bead lysis, supernatant)
T1 sequence (O13465 whole entry): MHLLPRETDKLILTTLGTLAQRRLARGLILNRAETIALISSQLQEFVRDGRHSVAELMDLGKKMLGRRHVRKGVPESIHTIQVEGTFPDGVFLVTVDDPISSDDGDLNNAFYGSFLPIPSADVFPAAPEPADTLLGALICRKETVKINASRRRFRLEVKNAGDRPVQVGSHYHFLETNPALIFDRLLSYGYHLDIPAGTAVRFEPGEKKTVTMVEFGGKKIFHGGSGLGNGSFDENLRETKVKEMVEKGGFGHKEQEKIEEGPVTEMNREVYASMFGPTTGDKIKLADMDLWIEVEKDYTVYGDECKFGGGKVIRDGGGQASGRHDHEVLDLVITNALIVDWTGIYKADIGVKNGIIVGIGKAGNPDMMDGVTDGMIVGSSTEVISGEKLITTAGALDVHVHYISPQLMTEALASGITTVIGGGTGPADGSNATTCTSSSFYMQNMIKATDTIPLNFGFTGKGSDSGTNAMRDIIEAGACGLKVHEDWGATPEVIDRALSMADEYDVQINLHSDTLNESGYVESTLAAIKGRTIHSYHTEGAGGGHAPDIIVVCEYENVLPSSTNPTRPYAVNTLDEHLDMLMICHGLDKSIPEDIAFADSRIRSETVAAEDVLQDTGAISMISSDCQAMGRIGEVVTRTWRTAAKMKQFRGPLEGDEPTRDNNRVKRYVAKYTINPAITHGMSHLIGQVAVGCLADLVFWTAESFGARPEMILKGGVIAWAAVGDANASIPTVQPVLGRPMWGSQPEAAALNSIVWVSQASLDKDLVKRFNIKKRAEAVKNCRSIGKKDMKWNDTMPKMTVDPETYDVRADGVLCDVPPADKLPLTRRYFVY
Protocol: Five colonies of C. neoformans were suspended in 100 μL SD broth and inoculated onto SD agar using a Drigalski spreader, and the culture was incubated at 37°C for 48 h. Afterward, all fungal growth was gently scraped and transferred to conical flasks containing 300 mL of SD broth and incubated with shaking (150 rpm) at 37°C for further 48 h. Cells were centrifuged (6,000 × g, 10 min) and washed three times with distilled water. The protein extraction was performed according to [Moller et al. (2016)] with modifications. Briefly, fungal cells were resuspended in 10 mL of chilled lysis buffer consisting of 100 μM Nα-tosyl-L-lysine chloromethyl ketone hydrochloride (TLCK), 1 mM EDTA, 10% glycerol and 0.15 M phosphate-buffered saline (PBS), pH 8.0. […] Then, the cell debris was removed by centrifugation (6,000 × g, 15 min, 4°C), and the protein content of the resulting supernatant was quantified using the […].
The inhibition of urease activity was evaluated by the indophenol method ([Weatherburn, 1967]). […] The reaction mixtures were incubated for further 10 min at 45°C, and the optical density (OD) was measured at 630 nm. Urease inhibition percentage (I%) was calculated according to the equation: I% = 100–(ODBTU–01/ODcontrol) × 100. […]

SMILES	hemolysis at 3 h (Hemolysis assay)	CFU counts (Cryptococcus neoformans; AmB MFC, after 24 h-incubation)	CC50 at 24 h ([1]; read-out: CC50, range over cell lines)	CC90 at 24 h ([1]; read-out: CC90, range over cell lines)	pIC50 (cryptococcal urease)	difference in CFU counts compared to untreated control cells (Cryptococcus neoformans; 1172)	difference in CFU counts compared to untreated control cells (Cryptococcus neoformans; ATCC 34872)	reduction of CFU compared to untreated control (Cryptococcus neoformans; treatment with MFC, 1172 isolate)	CFU counts (Cryptococcus neoformans; treatment with MFC, ATCC 34872)
C[C@@H]1[C@H](O)[C@@H](C)/C=C/C=C/C=C/C=C/C=C/C=C/C=C/[C@H](O[C@@H]2O[C@H](C)[C@@H](O)[C@H](N)[C@@H]2O)C[C@@H]2O[C@](O)(C[C@@H](O)C[C@@H](O)[C@H](O)CC[C@@H](O)C[C@@H](O)CC(=O)O[C@H]1C)C[C@H](O)[C@H]2C(=O)O [Amphotericin B, amphotericin B]	0.52 to 1.34%	no CFU counts were detected							
CCCCNC(=S)NC(=O)c1ccccc1 [BTU-01, N-(butylcarbamothioyl) benzamide]	0 to 3.18%		61 to 121 mg/L (≈ 258 to 513 µM)	143 to 244 mg/L (≈ 603 to 1030 µM)	3.65	3 log10	2 log10	5 log CFU	zero CFU counts
